Measured values as given in US8148097B2, “Screening method for identification of compounds with calcium-independent phospholipase A2β (iPLA2β) modulating activity” (Washington University, priority 2005, dated 2012).

Target: T1, iPLA2β (Cricetulus griseus, UniProt A0A3L7I2I8)
T1 construct: (His)6; made in house; host or cells: Sf9 insect cells (baculovirus)
T1 sequence (A0A3L7I2I8 1-752 isoform A0A3L7I2I8-2): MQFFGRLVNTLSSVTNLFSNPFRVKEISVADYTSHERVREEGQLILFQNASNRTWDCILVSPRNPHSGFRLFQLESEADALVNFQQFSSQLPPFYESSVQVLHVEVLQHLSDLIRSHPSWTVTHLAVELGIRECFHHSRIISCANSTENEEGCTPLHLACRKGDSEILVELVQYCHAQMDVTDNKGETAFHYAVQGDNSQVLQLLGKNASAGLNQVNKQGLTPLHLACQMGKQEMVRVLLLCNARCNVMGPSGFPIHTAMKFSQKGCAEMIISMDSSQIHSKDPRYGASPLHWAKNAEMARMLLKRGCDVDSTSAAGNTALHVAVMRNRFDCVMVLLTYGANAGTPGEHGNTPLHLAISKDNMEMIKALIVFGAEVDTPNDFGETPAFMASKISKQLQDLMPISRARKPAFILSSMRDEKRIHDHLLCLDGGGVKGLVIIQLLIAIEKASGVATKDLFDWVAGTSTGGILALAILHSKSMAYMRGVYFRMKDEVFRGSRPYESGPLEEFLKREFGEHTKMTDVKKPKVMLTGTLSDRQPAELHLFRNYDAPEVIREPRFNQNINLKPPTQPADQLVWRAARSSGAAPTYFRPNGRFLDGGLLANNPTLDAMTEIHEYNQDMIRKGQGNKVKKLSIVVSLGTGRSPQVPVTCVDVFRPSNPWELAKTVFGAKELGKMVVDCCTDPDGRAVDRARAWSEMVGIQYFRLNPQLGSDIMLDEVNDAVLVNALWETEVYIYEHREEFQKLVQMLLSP
Experiment: Covalent acylation (autoacylation) of iPLA2β with [14C]-long chain acyl-CoAs
Type: biochemical
Method: FIG. 5—Equivalent amounts of the indicated [1-^14C]-acyl-CoA guests (5 mol %) were incorporated into host POPC (100 μM) vesicles and incubated for 1 hr at 37° C. with equal amounts of either wild-type (WT) iPLA2β(His)6 (peptide disclosed as SEQ ID NO: 4), S465A iPLA2β(His)6 (peptide disclosed as SEQ ID NO: 4), or BEL-pretreated WT iPLA2β(His)6 (peptide disclosed as SEQ ID NO: 4) enzyme as described in Experimental Procedures. Samples were resolved by SDS-PAGE (10% gel), fixed, and dried before visualization by autoradiography.
FIG. 6—Purified iPLA2β(His)6 (peptide disclosed as SEQ ID NO: 4) (2 μM) was incubated with the indicated concentrations of [1-^14C]-oleoyl-CoA present as guest in host POPC (100 μM) vesicles for 1 hr at 37° C. Samples were electrophoresed in parallel with standard amounts (0.5-10 nCi) of [^14C]-BSA of known activity (not shown). The fixed and dried gel was exposed to film and the resultant signals from the [^14C]-BSA were utilized to generate a standard curve utilizing ID software from a Kodak Imagestation to determine the incorporation of [1-^14C]-oleate into iPLA2β.
FIG. 7—Purified iPLA2β(His)6 (peptide disclosed as SEQ ID NO: 4) was incubated with [1-^14C]-oleoyl CoA (10 mol %) incorporated as guest in host POPC vesicles. N-ethylmaleimide and iodoacetamide samples were pretreated with 5 mM of either reagent for 5 min at 30° C. before addition of [1-^14C]-oleoyl-CoA. Samples were incubated with 1 N HCl, 1 N NaOH, or 2 N neutral hydroxylamine for 1 hr at 30° C. as indicated. All samples, except lane 1, were precipitated with CHCl3/MeOH and washed with 70% acetone before SDS-PAGE and autoradiography as described in Experimental Procedures.
FIG. 10—Purified iPLA2β(His)6 (peptide disclosed as SEQ ID NO: 4) was incubated with [1-^14C]-oleoyl CoA (10 mol %) incorporated as guest in host POPC vesicles in the presence of EGTA (5 mM), Ca^2+ (1 mM), CaM (3 μg), or Ca^2+-CaM for 1 h at 37° C. Samples were resolved by SDS-PAGE and the gel was soaked in Amplify fluorographic reagent, dried, and exposed to film as described in Experimental Procedures.
Covalent Modification of […] with [^14C]-long chain Acyl CoAs—Purified recombinant iPLA2β(His)6 (peptide disclosed as SEQ ID NO: 4) was incubated with POPC vesicles containing 10 mol % [1-^14C]-acyl-CoA for 1 h at 37° C. […] Chloroform/methanol precipitation of some samples was performed as described (66) utilizing 15 μg of bovine serum albumin as carrier. In tests to examine the nature of the covalent linkage between oleic acid and iPLA2β, acid (HCl), base (NaOH), and hydroxylamine were added to the indicated concentrations and the samples were incubated at 30° C. for 1 h. Bovine serum albumin (15 μg) and SDS-PAGE loading buffer were then added to each sample prior to dialysis against 50 mM Tris-HCl, pH 6.8 containing 10% glycerol and 1% SDS for 4 h. Samples were electrophoresed by SDS-PAGE, fixed (40% methanol containing 10% acetic acid), stained with Coomassie Blue R-250, incubated in Amplify fluorographic reagent, dried, and exposed to Kodak Biomax MR film for 2-5 days at −80° C.

CCCCCCCC/C=C\CCCCCCCC(=O)SCCNC(=O)CCNC(=O)[C@H](O)C(C)(C)COP(=O)(O)OP(=O)(O)OC[C@H]1O[C@@H](n2cnc3c(N)ncnc32)[C@H](O)[C@@H]1OP(=O)(O)O [oleoyl-CoA]
[1-14C]-oleic acid incorporated per mole of iPLA2β (POPC vesicles, up to 5-fold molar excess of oleoyl-CoA, FIG. 6): approximately 1 mole | radiolabeling of iPLA2β, fold greater than saturated counterparts (wild-type iPLA2β, FIG. 5): 10-100 fold
